The text below walks through data of patent US20100062995A1, “Transition state structure of human 5'methylthioadenosine phosphorylase” (priority 2006, published 2010).

For experiment [1], the target named is T1, human MTAP (Homo sapiens, UniProt Q13126).
T1 construct: His6 (N); made in house; host or cells: E. coli (pQE32 vector)
T1 sequence (Q13126 1-283): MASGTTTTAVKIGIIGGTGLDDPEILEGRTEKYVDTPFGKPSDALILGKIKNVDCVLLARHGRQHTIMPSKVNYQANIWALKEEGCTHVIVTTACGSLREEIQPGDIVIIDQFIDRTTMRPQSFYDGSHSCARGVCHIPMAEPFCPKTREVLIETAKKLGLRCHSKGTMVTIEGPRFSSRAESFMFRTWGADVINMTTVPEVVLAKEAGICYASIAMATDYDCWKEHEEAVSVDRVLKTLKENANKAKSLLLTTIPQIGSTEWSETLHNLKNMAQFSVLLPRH
In words: Measurement of kinetic isotope effects on arsenolysis of MTA. The experiment is classed as biochemical. The following applies: pH 7.5, arsenolysis of MTA; for KIE (experimental): corrected to 0% substrate depletion; for Intrinsic KIEs: observed KIE corrected for forward commitment. As for the experimental part:
Measurement of kinetic isotope effects. The KIEs were measured by mixing ^3H and ^14C labeled substrates with ^3H:^14C in 4:1 ratio. […] After 20-30% completion of the reaction, 750 μL of the reaction was resolved on charcoal-Sepharose (acid-washed powdered charcoal and Sepharose in 1:4 ratio made into a slurry in 1 mM 5-methylthioribose (MTR) and settled in Pasteur pipettes). The remainder of the reaction mixture was allowed to react to completion and then applied to the column. Columns were washed with 2 volumes of 1 mM MTR and radioactive methylthioribose was eluted with 6 volumes of 15 mM MTR containing 50% ethanol. Each 1.0 mL of eluate was mixed with 9.0 mL scintillation fluid and counted for at least 3 cycles at 10 minutes per cycle. The ^3H to ^14C ratio was determined for partial and complete reactions and the KIEs were corrected to 0% hydrolysis by the equation: […]
where f is the fraction of reaction progress and Rf and Ro are ratios of heavy to light isotope at partial and total completion of reaction, respectively.
Experimental kinetic isotope effects (KIEs) and commitment factors. […] To avoid kinetic complexity associated with the transition state analyses for reversible reactions, the KIEs for the human MTAP were measured on the physiologically irreversible reaction of arsenolysis. The products of arsenolysis are adenine and 5-methylthioribose 1-arsenate. Methylthioribose 1-arsenate is unstable and rapidly decomposes to form methylthioribose and arsenate.
Where ^T(V/K) is an observed tritium isotope effect, Cf is the forward commitment to catalysis. The intrinsic KIEs were obtained by correcting the observed KIEs (column 3, Table 1) for the forward commitment.

In another experiment the target is S. pneumoniae MTAN (Streptococcus pneumoniae, UniProt Q8DQ16). Particulars: S. pneumoniae MTAN (Singh et al., 2005a); cited from earlier work.
Chain of S. pneumoniae MTAN (Q8DQ16 entry or part of it): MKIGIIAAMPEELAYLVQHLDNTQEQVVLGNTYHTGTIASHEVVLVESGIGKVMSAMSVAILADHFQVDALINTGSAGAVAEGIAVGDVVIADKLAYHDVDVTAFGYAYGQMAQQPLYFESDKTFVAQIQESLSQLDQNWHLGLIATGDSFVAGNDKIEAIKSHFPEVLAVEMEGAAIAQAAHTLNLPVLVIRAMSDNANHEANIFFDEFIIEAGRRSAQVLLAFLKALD
The target of another experiment is E. coli MTAN (Escherichia coli, UniProt P0AF12). The following applies: E. coli MTAN (Singh et al., 2005a); cited from earlier work.
Chain of E. coli MTAN (P0AF12 whole entry): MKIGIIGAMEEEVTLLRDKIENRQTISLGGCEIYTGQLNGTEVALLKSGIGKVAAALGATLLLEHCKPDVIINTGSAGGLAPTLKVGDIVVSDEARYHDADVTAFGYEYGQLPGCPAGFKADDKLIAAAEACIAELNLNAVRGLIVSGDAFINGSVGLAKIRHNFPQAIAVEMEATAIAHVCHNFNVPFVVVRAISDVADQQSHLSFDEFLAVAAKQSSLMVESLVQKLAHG
The target in experiment [2] is T1, human MTAP. In words: Kinetic analysis with substrate analogues (kcat, Km). The class given is biochemical. An excerpt:
Kinetic analysis with substrate analogues provide additional evidence concerning the importance of the 3′-hydroxyl in catalysis (Kung et al., 2005). […] The formation of an oxyanion from ionization of the 3′-hydroxyl further stabilizes the positive charge at the anomeric carbon.

In experiment [3] the target is T1, human MTAP. Particulars: cited from earlier work; for kcat: human MTAP (Kung et al., 2005); for fold increase in Km relative to MTA: human MTAP.

Several values for one entry are separate records, joined by “and”; a condition that tells them apart may be missing. Identical values can stand only once. Marks after values point to notes of the source that are not given here.

As to `[3H][C@]1(CSC)O[C@@H](n2cnc3c(N)ncnc32)[C@H](O)[C@@H]1O` [[4′-^3H], [4′-^3H]MTA], the “KIE (experimental)” value at human MTAP [1] came to 1.037 ± 0.005. Moreover, the “Intrinsic KIEs” value at human MTAP [1] is given as 1.045 ± 0.005; at human MTAP [1] (listed as 4′-^3H), 1.045. The figures for the “intrinsic 4′-^3H KIE” value on S. pneumoniae MTAN and at E. coli MTAN were 1.015 and 1.010, respectively.
`CSC[C@@H]1C[C@@H](O)[C@H](n2cnc3c(N)ncnc32)O1` [3′-deoxy MTA]: at human MTAP [2], the “fold decrease in kcat relative to MTA” value is given as about 1000 fold. Also, on human MTAP [3], the kcat is 0.004 s⁻¹ and the “fold increase in Km relative to MTA” value was about 2 fold.
Turning to `[3H]C([3H])([3H])SC[C@H]1O[C@@H](n2cnc3c(N)ncnc32)[C@H](O)[C@@H]1O` [[Me-^3H], [methyl-^3H3]MTA], on human MTAP [1], the “KIE (experimental)” value came to 1.073 ± 0.002 and the “Intrinsic KIEs” value is 1.086 ± 0.002. Also, the “Intrinsic KIEs” value on human MTAP [1] (listed as [Me-^3H3] MTA) is reported as 1.086.
As for `CSC[C@H]1O[14C@@H](n2cnc3c(N)ncnc32)[C@H](O)[C@@H]1O` [[1′-^14C], [1′-^14C]MTA], at human MTAP [1], the “KIE (experimental)” value is 1.025 ± 0.005^b. The “Intrinsic KIEs” value at human MTAP [1] worked out at 1.030 ± 0.005; at human MTAP [1] (listed as 1′-^14C) it was 1.029; at human MTAP [1] (listed as 1′-^14C MTA), 1.029.
In the case of `CSC[C@H]1O[C@@H](n2cnc3c(N)ncnc32)C[C@@H]1O` [2′-deoxy MTA], on human MTAP [3], the kcat is 0.28 s⁻¹ and the “fold increase in Km relative to MTA” value was about 2 fold.
As for `[3H]C([3H])(SC)[C@H]1O[C@@H](n2cnc3c(N)ncnc32)[C@H](O)[C@@H]1O` [[5′-^3H], [5′-^3H]MTA], at human MTAP [1], the “KIE (experimental)” value is listed as 1.038 ± 0.001 and the “Intrinsic KIEs” value came out at 1.046 ± 0.001. Moreover, at human MTAP [1] (listed as [5′-^3H2] MTA), the “Intrinsic KIEs” value was found to be 1.046.
Take `[3H][C@@]1(O)[C@H](O)[C@@H](CSC)O[C@H]1n1cnc2c(N)ncnc21` [[2′-^3H], [2′-^3H]MTA]: at human MTAP [1], the “KIE (experimental)” value is 1.063 ± 0.003. Also, the figures for the “Intrinsic KIEs” value on human MTAP [1] and at human MTAP [1] (listed as 2′-^3H) were 1.076 ± 0.003 and 1.076, respectively.
As for `[3H]C1(n2cnc3c(N)ncnc32)OC(CSC)C(O)C1O` (stereo not shown) [[1′-^3H], [1′-^3H]MTA], at human MTAP [1], the “KIE (experimental)” value was 1.290 ± 0.003 and the “Intrinsic KIEs” value is reported as 1.350 ± 0.003. Moreover, the “Intrinsic KIEs” value at human MTAP [1] (listed as 1′-^3H) amounted to 1.35.
As for `CS[14CH2][C@H]1O[C@@H]([15n]2cnc3c(N)ncnc32)[C@H](O)[C@@H]1O` [[9-^15N/5′-^14C]], at human MTAP [1], the “KIE (experimental)” value is on record as 1.031 ± 0.002^c. The “Intrinsic KIEs” value is 1.037 ± 0.002 on human MTAP [1]; 1.037 and 1.036 at human MTAP [1] (listed as 9-^15N); 1.037 at human MTAP [1] (listed as 9-^15N MTA); 1.036 at human MTAP [1] (listed as 15N9).
